Test results taken from patent US9723817B2 (priority 2011, dated 2017).

Legend:
wild type N2 C. elegans = experiment: EPG recording of pharyngeal pumping in microfluidic EPG array, wild type worms; type: in vivo, Caenorhabditis elegans
Experimental: (§1) C. elegans strains were grown on Nematode Growth Medium (NGM) agar plates seeded with the OP50 strain of E. coli. All strains were obtained from the Caenorhabditis Genetics Center (CGC; Minneapolis, Minn.). Wild-type worms were Bristol N2 and Ivermectin (IVM) resistant mutants were DA1316 avr-14(ad1302); avr-15(ad1051); glc-1(pk54). Worms were age synchronized by allowing gravid adults to lay eggs on seeded NGM plates for approximately 6 hr. The adults were then removed and embryos allowed to develop to adulthood at room temperature.
All experiments utilized M9 buffer (recipe available on the World Wide Web at 130.15.90.245/wormlab_recipe_book.htm#Commonlab; containing KH2PO4, NaHPO4, NaCl and MgSO4) to which serotonin (5HT) was added to stimulate pharyngeal pumping (Raizen and Avery, Neuron 1994 March; 12(3):483-95). Stocks of serotonin creatine sulfate monohydrate (Sigma H7752; St. Louis, Mo.) were prepared in M9 buffer at 40 mM and held in small aliquots at −20° C. until use. Each day of an experiment, a fresh aliquot was thawed and diluted to 10 mM 5HT in M9 buffer. This “M9-5HT” buffer was the control medium to which drugs or other compounds were added. Stock solutions of ivermectin (10 mM; Sigma 8898) were made up in dimethyl sulfoxide (DMSO, Fisher D-136; Fair Lawn, N.J.) and held at −20° C. for no longer than 2 wk. On the day of an experiment, IVM was diluted to the final concentration in M9-5HT buffer containing 0.005% Fast Green (Fisher F-99) as a visual indicator of drug flow within the chip (see below). The dye-containing M9-5HT buffer was filtered (PALL Life Sciences 25 mm Acrodisc syringe filter with 0.2 μm HT Tuffryn Membrane; Port Washington, N.Y.) before drug or DMSO was added.
Young adult worms were transferred from growth plates into a glass well containing M9-5HT buffer and left to acclimate for 10 minutes. […]
(§2) EPGs were recorded by a pair of 4-channel AC differential amplifiers (A-M Systems model 1700, Carlsborg, Wash.) connected to electrodes inserted into the device. […]

[1] = system: ivermectin resistance mutant C. elegans avr-14(ad1302); avr-15(ad1051); glc-1(pk54); experiment: EPG recording of pharyngeal pumping in microfluidic EPG array, ivermectin-resistant mutant worms; type: in vivo, Caenorhabditis elegans; conditions: 10 μM ivermectin in M9-5HT buffer, ivermectin-resistant mutant (FIG. 5)
Experimental: as §1
All experiments utilized M9 buffer (recipe available on the World Wide Web at 130.15.90.245/wormlab_recipe_book.htm#Commonlab; containing KH2PO4, NaHPO4, NaCl and MgSO4) to which serotonin (5HT) was added to stimulate pharyngeal pumping (Raizen and Avery, Neuron 1994 March; 12(3):483-95). Stocks of serotonin creatine sulfate monohydrate (Sigma H7752; St. Louis, Mo.) were prepared in M9 buffer at 40 mM and held in small aliquots at −20° C. until use. Each day of an experiment, a fresh aliquot was thawed and diluted to 10 mM 5HT in M9 buffer. This “M9-5HT” buffer was the control medium to which drugs or other compounds were added. […]
as §2

Compound	inhibition of pharyngeal pumping (EPG) (wild type N2 C. elegans; 10 mM levamisole in M9-5HT buffer, within 10 minutes (FIG. 6B))	pharyngeal pumping after washout of drug (EPG) (wild type N2 C. elegans; after 10 mM levamisole, within 60 minutes of wash onset with control buffer (FIG. 6C))	size and frequency of EPG signal (wild type N2 C. elegans; 10 μM ivermectin in M9-5HT buffer, 10 minutes after treatment, all eight C. elegans (FIG. 4))	block of pharyngeal pumping (EPG) [1]
c1ccc([C@H]2CN3CCSC3=N2)cc1 [levamisole]	completely inhibited	returned to normal		
ivermectin			significantly reduced or even eliminated	failed to block
